Assay results as given in ChEMBL document CHEMBL1137975, “DNA binding ligands with in vivo efficacy in murine models of bacterial infection: optimization of internal aromatic amino acids” (2004).
Converted amounts (≈) assume the structure as drawn.

How the values were obtained:
[1] = Minimum inhibitory concentration in mice against antimicrobial activity in […] (PISP 49619).; assay type: functional; conditions: Streptococcus pneumoniae
Staphylococcus aureus = assay: Minimum inhibitory concentration in mice against antimicrobial activity in methicillin-resistant Staphylococcus aureus(MRSA 27660).; assay type: functional
Enterococcus faecalis = assay: Minimum inhibitory concentration in mice against antimicrobial activity in vancomycin-sensitive Enterococcus faecalis (VSEF 29212).
Mus musculus [2] = species: Mus musculus; assay: Minimum inhibitory concentration was evaluated in mice against antimicrobial activity in […] (PISP 49619); 0.5-2; assay type: functional
Mus musculus [3] = species: Mus musculus; assay: Minimum inhibitory concentration was evaluated in mice against antimicrobial activity in […] Enterococcus faecalis (VSEF 29212); 2-8; assay type: functional
Mus musculus [4] = species: Mus musculus; assay: Minimum inhibitory concentration was evaluated in mice against antimicrobial activity in […] (PISP 49619); 0.03-0.13; assay type: functional
Mus musculus [5] = species: Mus musculus; assay: Minimum inhibitory concentration was evaluated in mice against antimicrobial activity in […] Enterococcus faecalis (VSEF 29212); 0.13-1; assay type: functional
Mus musculus [6] = species: Mus musculus; assay: Minimum inhibitory concentration was evaluated in mice against antimicrobial activity in methicillin-resistant Staphylococcus aureus(MRSA 27660); 0.25-1; assay type: functional
Mus musculus [7] = species: Mus musculus; assay: Minimum inhibitory concentration was evaluated in mice against antimicrobial activity in […] Enterococcus faecalis (VSEF 29212); 0.5-2; assay type: functional
Mus musculus [8] = species: Mus musculus; assay: Minimum inhibitory concentration was evaluated in mice against antimicrobial activity in […] (PISP 49619); 1-2; assay type: functional
Mus musculus [9] = species: Mus musculus; assay: Minimum inhibitory concentration was evaluated in mice against antimicrobial activity in […] (PISP 49619); 1-32; assay type: functional
Mus musculus [10] = species: Mus musculus; assay: Minimum inhibitory concentration was evaluated in mice against antimicrobial activity in methicillin-resistant Staphylococcus aureus(MRSA 27660); 0.06-0.13; assay type: functional
Mus musculus [11] = species: Mus musculus; assay: Minimum inhibitory concentration was evaluated in mice against antimicrobial activity in […] (PISP 49619); 0.03-0.06; assay type: functional

Row | Structure (SMILES) | MIC [1] [µg/mL] | MIC (Staphylococcus aureus) [µg/mL] | MIC (Enterococcus faecalis) [µg/mL] | further results
1 | Cn1cc(NC(=O)c2cc(NC(=O)c3cc(NC(=O)c4cc5ccccc5cn4)nn3C)cn2C)cc1C(=O)NCCN1CCOCC1 | 0.5 (≈ 0.766 µM) | 1 (≈ 1.53 µM) | 8 (≈ 12.3 µM) | 
2 | Cn1cc(NC(=O)c2cc(NC(=O)c3ccc(NC(=O)c4sccc4Cl)cc3)cn2C)cc1C(=O)NCCN1CCOCC1 | 32 (≈ 50.1 µM) | 32 (≈ 50.1 µM) | 16 (≈ 25.1 µM) | 
3 | CN[C@H](CC(C)C)C(=O)N[C@H]1C(=O)N[C@@H](CC(N)=O)C(=O)N[C@H]2C(=O)N[C@H]3C(=O)N[C@H](C(=O)N[C@H](C(=O)O)c4cc(O)cc(O)c4-c4cc3ccc4O)[C@H](O)c3ccc(c(Cl)c3)Oc3cc2cc(c3O[C@@H]2O[C@H](CO)[C@@H](O)[C@H](O)[C@H]2O[C@H]2C[C@](C)(N)[C@H](O)[C@H](C)O2)Oc2ccc(cc2Cl)[C@H]1O [VANCOMYCIN] | 0.25 (≈ 0.173 µM) |  | 1 (≈ 0.69 µM) | 
4 | Cn1cc(NC(=O)c2sccc2Cl)cc1C(=O)Nc1cc(C(=O)Nc2ccc(C(=O)NCCN3CCOCC3)cc2)n(C)c1 | > 32 | > 32 | > 32 | 
5 | Cc1cnc(C(=O)Nc2cc(C(=O)Nc3ccc(C(=O)Nc4cc(C(=O)NCCN5CCOCC5)n(C)c4)cc3)n(C)c2)cn1 | 0.13 (≈ 0.212 µM) | 0.5 (≈ 0.815 µM) | 2 (≈ 3.26 µM) | 
6 | Cn1cc(NC(=O)c2cc(NC(=O)CCNC(=O)c3cc4ccccc4cn3)cn2C)cc1C(=O)NCCN1CCOCC1 | 8 (≈ 13.3 µM) | 32 (≈ 53.3 µM) | 16 (≈ 26.6 µM) | 
7 | Cn1cc(NC(=O)c2cc(NC(=O)c3cc(NC(=O)c4sccc4Cl)cn3C)c[nH]2)cc1C(=O)NCCN1CCOCC1 |  | 8 (≈ 12.8 µM) |  | MIC (Mus musculus [2]): 2 µg/mL (≈ 3.19 µM); MIC (Mus musculus [3]): 8 µg/mL (≈ 12.8 µM)
8 | Cn1cc(NC(=O)c2cc(NC(=O)c3nc(NC(=O)c4cc5ccccc5cn4)cn3C)cn2C)cc1C(=O)NCCN1CCOCC1 | 0.25 (≈ 0.383 µM) | 1 (≈ 1.53 µM) | 1 (≈ 1.53 µM) | 
9 | Cn1cc(NC(=O)c2cc(NC(=O)c3nc(NC(=O)c4sccc4Cl)cn3C)cn2C)cc1C(=O)NCCN1CCOCC1 |  |  |  | MIC (Mus musculus [4]): 0.13 µg/mL (≈ 0.202 µM); MIC (Mus musculus [5]): 1 µg/mL (≈ 1.56 µM)
10 | CC(C)n1cc(NC(=O)c2cc(NC(=O)c3cc(NC(=O)c4sccc4Cl)cn3C)cn2C)cc1C(=O)NCCN1CCOCC1 | 0.25 (≈ 0.374 µM) | 1 (≈ 1.49 µM) | 1 (≈ 1.49 µM) | 
11 | Cn1cc(NC(=O)c2cc(NC(=O)c3cc(NC(=O)c4cc5ccccc5cn4)cn3C)cs2)cc1C(=O)NCCN1CCOCC1 | 0.5 (≈ 0.764 µM) | 8 (≈ 12.2 µM) | > 32 | 
12 | Cn1cc(NC(=O)c2cc(NC(=O)c3cc(NC(=O)c4cc5ccccc5cn4)cn3C)nn2C)cc1C(=O)NCCN1CCOCC1 | 0.25 (≈ 0.383 µM) | 0.5 (≈ 0.766 µM) | 1 (≈ 1.53 µM) | 
13 | Cn1cc(NC(=O)c2cc(NC(=O)c3cc(NC(=O)c4cc5ccccc5cn4)cn3C)c[nH]2)cc1C(=O)NCCN1CCOCC1 |  |  |  | MIC (Mus musculus [6]): 1 µg/mL (≈ 1.57 µM); MIC (Mus musculus [7]): 2 µg/mL (≈ 3.14 µM); MIC (Mus musculus [8]): 2 µg/mL (≈ 3.14 µM)
14 | Cn1cc(NC(=O)c2sccc2Cl)cc1C(=O)Nc1cc(C(=O)Nc2cc(C(=O)NCCN3CCOCC3)n(C)n2)n(C)c1 | > 32 | > 32 | > 32 | 
15 | Cn1cc(NC(=O)c2ccc(NC(=O)c3cc(NC(=O)c4sccc4Cl)cn3C)cc2)cc1C(=O)NCCN1CCOCC1 | 1 (≈ 1.57 µM) | 8 (≈ 12.5 µM) | 2 (≈ 3.13 µM) | 
16 | Cn1cc(NC(=O)c2ccc(NC(=O)c3cc(NC(=O)c4cnc5ccccc5c4)cn3C)cc2)cc1C(=O)NCCN1CCOCC1 | 2 (≈ 3.08 µM) | > 32 | > 32 | 
17 | CC(C)n1cc(NC(=O)c2sccc2Cl)cc1C(=O)Nc1cc(C(=O)Nc2cc(C(=O)NCCN3CCOCC3)n(C)c2)n(C)c1 | 2 (≈ 2.99 µM) | 4 (≈ 5.98 µM) | 4 (≈ 5.98 µM) | 
18 | Cn1cc(NC(=O)c2cc(NC(=O)c3cc(NC(=O)c4sccc4Cl)c[nH]3)cn2C)cc1C(=O)NCCN1CCOCC1 | 2 (≈ 3.19 µM) | 8 (≈ 12.8 µM) | 2 (≈ 3.19 µM) | 
19 | Cn1cc(NC(=O)c2cc(NC(=O)c3cc(NC(=O)c4sccc4Cl)cn3C)nn2C)cc1C(=O)NCCN1CCOCC1 |  | 32 (≈ 49.8 µM) | > 32 | MIC (Mus musculus [9]): 32 µg/mL (≈ 49.8 µM)
20 | Cn1cc(NC(=O)c2ccc(NC(=O)c3cc(NC(=O)c4cc5ccccc5cn4)cn3C)cc2)cc1C(=O)NCCN1CCOCC1 |  |  |  | MIC (Mus musculus [10]): 0.13 µg/mL (≈ 0.2 µM); MIC (Mus musculus [11]): 0.06 µg/mL (≈ 0.0925 µM)
